This note sets out measurements from US6495571B1, “Pyridine compounds, use and preparation thereof” (Southern Research Institute, priority 1999, dated 2002).

The structures appear in SMILES notation. Read-outs that look alike come from different tables or passages of the source. Marks after values point to notes of the source that are not given here.

For data set [1], the system named is human MX-1 mammary tumor (ic, 10^6 cells). Put plainly: In vivo antitumor activity, i.c.-implanted MX-1 xenograft. The settings on record: for Median % ILS (dying mice only) / Tumor-Free-Surv/Total: Days 1-5; for activity against i.c.-implanted tumor (in words): in comparison to PEN and DM-PEN; for Median % ILS (based on dying mice only) / Survivors: optimal doses (LD10 or less), schedule QD1-5, administered LP.

Data set [2] relates to human MX-1 mammary tumor (sc, 30-40 mg fragments). Put plainly: In vivo antitumor activity, s.c.-implanted MX-1 xenograft. Conditions: for IP dosage marked (LD50): Days 12-16, sc MX-1 bearing mice. More on the design: species or system Athymic mice (Ncr-nu).
A further data set deals with P388/0 murine leukemia. Conditions: Q1D × 1 (1).
In data set [3] the test system is P388/L-PAM (melphalan-resistant) leukemia. Conditions: Q1D × 1 (1).
Where [4] appears, read: oral (gavage) 135 mg/kg/dose, Days 12-16.
The mark [5] stands for this setting: oral (gavage) 135 mg/kg/dose, Days 13-17.

As for `COc1nc(C(Cl)(Cl)Cl)c(Cl)c(OC(=O)c2ccco2)c1Cl` [DM-F-PEN], in data set [1] (IP 135 mg/kg/dose), the “Median % ILS (dying mice only)” value is given as “+108%” and the Tumor-Free-Surv/Total is 2/5. Besides, in data set [1], the “activity against i.c.-implanted tumor (in words)” value (from here on “activity”) was “significant activity”, the “Median % ILS (based on dying mice only)” value was 108^c % and the Survivors was 2/5. For the same molecule, in data set [2] (IP 90 mg/kg/dose, Days 12-16), the T-C was above 41.2 days and the Tumor-Free-Surv/Total is listed as 5/5.

As for `COc1nc(C(Cl)(Cl)Cl)c(Cl)c(OC(=O)CI)c1Cl` [DM-IA-PEN], in data set [2] (IP 60 mg/kg/dose, Days 12-16), the T-C was found to be 20.3 days and the Tumor-Free-Surv/Total is listed as 1/5. Also, in data set [2], the “IP dosage marked (LD50)” value is reported as 60 (LD50) mg/kg/dose.

For the molecule `COc1nc(C(Cl)(Cl)Cl)c(Cl)c(OC(=O)c2ccncc2)c1Cl` [DM-IN-PEN], in data set [2] (IP 90 mg/kg/dose, Days 12-16), the T-C is given as above 38.6 days and the Tumor-Free-Surv/Total is recorded as 3/5. Moreover, in data set [2], the “IP dosage marked (LD50)” value is 90 (LD50) mg/kg/dose.

Take `COCC(=O)Oc1c(Cl)c(OC)nc(C(Cl)(Cl)Cl)c1Cl` [DM-MA-PEN]: in data set [1] (IP 90 mg/kg/dose), the “Median % ILS (dying mice only)” value is listed as “+125%” and the Tumor-Free-Surv/Total was 1/5. In data set [1], the “activity” value was “significant activity”, the “Median % ILS (based on dying mice only)” value is listed as 126^a % and the Survivors is on record as 1/5. Further, in data set [1] (oral (gavage) 90 mg/kg/dose), the “Median % ILS (dying mice only)” value is “+110%” and the Tumor-Free-Surv/Total is 1/5. In addition, in data set [2] (setting [4]), the T-C is listed as above 41.0 days and the Tumor-Free-Surv/Total is 5/5.

Regarding `COc1nc(C(Cl)(Cl)Cl)c(Cl)c(OC(=O)c2ccc([N+](=O)[O-])cc2)c1Cl` [DM-NB-PEN], in data set [2] (IP 135 mg/kg/dose, Days 12-16), the T-C is listed as above 38.6 days and the Tumor-Free-Surv/Total is 5/5.

`COc1nc(C(Cl)(Cl)Cl)c(Cl)c(OC(=O)c2ccc([N+](=O)[O-])o2)c1Cl` [DM-NF-PEN]: in data set [1] (IP 135 mg/kg/dose), the “Median % ILS (dying mice only)” value is “+59%” and the Tumor-Free-Surv/Total is 0/5. For the same molecule, in data set [2] (IP 90 mg/kg/dose, Days 12-16), the T-C is above 41.2 days and the Tumor-Free-Surv/Total was 4/5.

Turning to `CCCCCCCC(=O)Oc1c(Cl)c(OC)nc(C(Cl)(Cl)Cl)c1Cl` [DM-O-PEN], in data set [1] (IP 90 mg/kg/dose), the “Median % ILS (dying mice only)” value is on record as “+121%” and the Tumor-Free-Surv/Total is on record as 0/5. In data set [1], the “activity” value was “significant activity”, the “Median % ILS (based on dying mice only)” value is on record as 121^b % and the Survivors was 0/5.

`COc1nc(C(Cl)(Cl)Cl)c(Cl)c(OC(=O)C(C)(C)C)c1Cl` [DM-P-PEN]: the figures for the “Median % ILS (dying mice only)” value in data set [1] (IP 135 mg/kg/dose) and in data set [1] (oral (gavage) 135 mg/kg/dose) were “+64%” and “+20%”, respectively. Besides, the Tumor-Free-Surv/Total is listed as 0/5 in data set [1] (IP 135 mg/kg/dose); 0/5 in data set [1] (oral (gavage) 135 mg/kg/dose); 5/5 in data set [2] (IP 135 mg/kg/dose, Days 11-15); 0/5 in data set [2] (setting [5]). In addition, the T-C in data set [2] (IP 135 mg/kg/dose, Days 11-15) is above 42.7 days; in data set [2] (setting [5]), 0.9 days.

On to `COc1nc(C(Cl)(Cl)Cl)c(Cl)c(OC(=O)Cc2cccs2)c1Cl` [DM-TA-PEN], for which, in data set [1] (IP 90 mg/kg/dose), the “Median % ILS (dying mice only)” value is given as “+75%” and the Tumor-Free-Surv/Total is given as 0/5. In addition, in data set [2] (IP 90 mg/kg/dose, Days 12-16), the T-C is on record as above 41.2 days and the Tumor-Free-Surv/Total is 3/5.

On to `COc1nc(C(Cl)(Cl)Cl)c(Cl)c(OC(=O)c2cccs2)c1Cl` [DM-TC-PEN], for which, in data set [1] (IP 135 mg/kg/dose), the “Median % ILS (dying mice only)” value is “+100%” and the Tumor-Free-Surv/Total is recorded as 0/5. In addition, in data set [1], the “activity” value is “significant activity”, the “Median % ILS (based on dying mice only)” value is 100^d % and the Survivors is listed as 0/5. Moreover, in data set [2] (IP 90 mg/kg/dose, Days 12-16), the T-C is on record as above 41.2 days and the Tumor-Free-Surv/Total was 4/5.

In the case of `COc1nc(C(Cl)(Cl)Cl)c(Cl)c(OC(=O)c2c(Cl)cc(Cl)cc2Cl)c1Cl` [DM-TCB-PEN], in data set [1] (IP 135 mg/kg/dose), the “Median % ILS (dying mice only)” value was “+92%” and the Tumor-Free-Surv/Total is on record as 1/5.

For `N[C@@H](Cc1ccc(N(CCCl)CCCl)cc1)C(=O)O` [L-PAM (melphalan), melphalan], the “50-DAY SURV./TOTAL” value with P388/0 murine leukemia (IP 15.0 mg/kg/dose) was 6/6; in the data set with P388/0 murine leukemia (IP 20.0 mg/kg/dose), 5/6; in data set [3] (IP 15.0 mg/kg/dose) it was 0/6; in data set [3] (IP 20.0 mg/kg/dose) it was 0/6. Further, the “% ILS” value with P388/0 murine leukemia (IP 20.0 mg/kg/dose) is on record as “+208%”; in data set [3] (IP 15.0 mg/kg/dose), “+14%”; in data set [3] (IP 20.0 mg/kg/dose), “+14%”. Besides, the “APPROX. NET LOG10 CHANGE IN TUMOR BURDEN AT END OF Rx” value with P388/0 murine leukemia (IP 20.0 mg/kg/dose) was “ca −6.8”; in data set [3] (IP 15.0 mg/kg/dose), −1.8; in data set [3] (IP 20.0 mg/kg/dose), −1.8. Besides, the “MEDIAN DAY OF DEATH” value with P388/0 murine leukemia (IP 20.0 mg/kg/dose) was 34.0; in data set [3] (IP 15.0 mg/kg/dose) it was 18.0; in data set [3] (IP 20.0 mg/kg/dose), 18.0.
